Results as given in ChEMBL document CHEMBL3507680, “University of Dundee, Gates Library screen for HepG2 cell viability”.

assay: Human HepG2 cell viability assay in 384 well format; format: toxicity, cell-based; parameters: dose 125 nL, time 70.5 hour; concentration not given beside the values; conditions: HepG2 cells, read-out: Inhibition

| Compound | cytotoxicity at 70.5 h [%] |
| --- | --- |
| NC(=O)C1CN(C(=O)Nc2ccc(SC(F)(F)F)cc2)CCO1 (stereo not drawn) | -10.3 |
| COc1c(C)cnc(CN(C)C(=O)c2ccccc2F)c1C | -4.79 |
| CC(C)N1CCC(Cc2cncc(-c3cc(F)ccc3C(=O)O)n2)C1 (stereo not drawn) | -6.34 |
| CCc1noc(C(C)N(C)CC(=O)Nc2ccc(Br)cc2C)n1 (stereo not drawn) | -96.5 |
| O=C1C(Sc2nnnn2C2CC2)CCN1c1ccccc1Cl (stereo not drawn) | -6.47 |
| Cc1ncc(CNC(=O)CCOc2ccccc2)c(C2CCCN2C)n1 (stereo not drawn) | -8.4 |
| O=C([C@H]1CCCO1)N1CCCC2(CCN(Cc3ccncc3)C2=O)C1 (stereo partly drawn) | 22.1 |
| CCOc1ncccc1C(=O)N1CCCCC1c1nccs1 (stereo not drawn) | 2.5 |
| COCCn1ccc(=O)c(OCC(=O)Nc2ccccc2)c1C | -10.1 |
| COc1ccc(CNC(=O)C2(C#N)CCCC2)cc1 | 12.6 |
| O=C(NCCc1csc(-c2ncccn2)n1)c1cnn2c1CCCC2 | -18.5 |
| Cc1nc(-c2ccnc(N3CCNCC3)n2)no1 | -1.44 |
| COc1cccc(CNc2c(C)nn(C(C)C)c2C)c1 | -2.2 |
| Cc1n[nH]c(C)c1CCc1ccc(S(C)(=O)=O)cc1 | -13.7 |
| Cc1cc(C(=O)NCC(O)CN2CCCC2=O)ccc1F (stereo not drawn) | -4.58 |
| c1ccc(-c2cc(CC3(NCc4ncc[nH]4)COC3)no2)cc1 | -4.27 |
| CCCS(=O)(=O)N1C[C@@H]2CN(Cc3cccs3)CCO[C@@H]2C1 | -14.7 |
| OC(CNCCn1cccn1)c1ccc(C(F)(F)F)cc1 (stereo not drawn) | -4.94 |
| Cc1cc(C)c(CNC(=O)N2CCN(c3ccncc3)CC2)c(=O)[nH]1 | -9.77 |
| CN(C)C(=O)NCc1nnn2c1CN(CC1CCOCC1)CCC2 | 0.222 |
| c1ccc(CCN2CCCC(Cn3ccnc3)C2)cc1 (stereo not drawn) | -10.4 |
| Cc1cc(-c2nn(C)c(Cl)c2CN2CCOCC2CC(N)=O)no1 (stereo not drawn) | 6.65 |
| CNC(=O)c1cnc(C)nc1CCNC(=O)CCc1ccccc1 | 7.59 |

| Compound | cytotoxicity at 70.5 h [%] |
| --- | --- |
| CCN1CCN(c2ccc(F)cc2C(C)NCc2nc(C)no2)CC1 (stereo not drawn) | -0.791 |
| Cc1ccc(OCc2nc(CNCC3CN(C)CCO3)cs2)cc1 (stereo not drawn) | 29.7 |
| CCC(NC(=O)C1CCN(C(=O)C2CC2)CC1)c1cn2cccnc2n1 (stereo not drawn) | -8.35 |
| Cc1cc(C[C@@H]2CCC[C@H]2NCc2cccc(F)c2F)on1 | -2.88 |
| CCc1nnc2n1CCN(Cc1csc(-c3ccsc3)n1)C2 | -8.3 |
| Cn1cccc1-c1cc(C(=O)N2CCCC2c2nccs2)[nH]n1 (stereo not drawn) | -0.138 |
| COc1cc(F)cc(NC(=O)NCc2cccc(N(C)C)n2)c1 | 16.5 |
| Cc1noc(NS(=O)(=O)c2ccc(Cl)s2)c1C | -0.524 |
| CN(C)CCNc1cc(-c2ncccc2Cl)c2cc[nH]c2n1 | 1.89 |
| COCc1nc(C(=O)N2CCCC2c2ccccc2C)cs1 (stereo not drawn) | -1.48 |
| Cc1ccoc1C(=O)NC1CCN(Cc2cccc3c2OCCO3)CC1 | 6.48 |
| CN1CCN(C(=O)Cc2ccc(S(=O)(=O)C(F)F)cc2)CC1 | -8.11 |
| Cc1nn(C)c2nc(NCCN3CCCC(C(N)=O)C3)sc12 (stereo not drawn) | -13.4 |
| Cc1nn(C)c2nc(N(Cc3ccccc3)CC3CCCO3)sc12 (stereo not drawn) | -11 |
| O=C(c1cccc(F)c1)N1CCCC1c1ncc2c(n1)CCNC2 (stereo not drawn) | -4.38 |
| CCc1nc(CN2CCCC(NCc3nc4cccnc4[nH]3)C2)no1 (stereo not drawn) | 18.9 |
| CC(C)(C)n1cc(C2=CCN(CCNC(=O)c3ccccc3)CC2)cn1 | -5.4 |
| CCC(C)N(Cc1cnc(NC(C)C)nc1)Cc1ccsc1 (stereo not drawn) | -4.23 |
| Cc1csc(C2(NC(=O)NCCN3CCOCC3)CCC2)n1 | -8.41 |
| Cc1sc2nc(C(F)(F)F)nc(N3CCCN(C)CC3)c2c1C | 22.1 |
| COc1ccc(F)cc1CN1CCC(O)(CN2CCCCC2)C1 (stereo not drawn) | -6.56 |
| CC(=O)N1CC2(CCN(C(=O)N(C)C)CC2)c2cc(C)ccc21 | 5.58 |
| Cc1ccc(C(=O)NCCC2CN(C3CCCC3)CCO2)c(C)c1 (stereo not drawn) | -4.25 |

| Compound | cytotoxicity at 70.5 h [%] |
| --- | --- |
| N#Cc1c(C2CC2)cc(-c2ccc(O)cc2)nc1N | 1.29 |
| CN1CCC(Cc2noc(-c3cccc4c3OCC4)n2)CC1 | -8.69 |
| CC(NC(=O)NCCCn1cncn1)c1ccncc1 (stereo not drawn) | 2.26 |
| COc1ccc(CNC(=O)N2CCc3sccc3C2)cc1O | -10.2 |
| CC(C)c1nc(C2CCCN(C(=O)CS(=O)(=O)C(C)C)C2)no1 (stereo not drawn) | -7.77 |
| NC(=O)CS(=O)(=O)Cc1csc(-c2ccc(F)cc2)n1 | 13.6 |
| COCCCSc1ccc(NC(=O)Nc2cn[nH]c2)cc1 | 18.2 |
| CC(NC(=O)NCc1cccc(F)c1)(C(=O)O)c1ccco1 (stereo not drawn) | -8.22 |
| Cc1ccc2[nH]c(CN3CC[C@@H](N4CCN(C)CC4)[C@H](O)C3)c(C)c2c1 | -6.53 |
| CN(Cc1cccc(C(N)=O)c1)c1ncc(C#N)cc1Cl | -9.21 |
| CC(=O)c1cccc(NC(=O)Cn2cc(-c3ccccc3)ncc2=O)c1 | -6.47 |
| COc1ccc(-c2ccc(C(=O)NCCCC(N)=O)c(F)c2)c(F)c1 | -3.05 |
| Cn1cc(CNC2CCCN(Cc3noc(C4CC4)n3)C2)cn1 (stereo not drawn) | 3.36 |
| CN(Cc1ccsc1)C(=O)Nc1cccnc1N1CCCC1 | 23 |
| COc1ccccc1N1CCC(CNS(=O)(=O)c2cccs2)C1 (stereo not drawn) | -6.04 |
| CNc1cc(N2CCCC2CNCc2csc(C(C)C)n2)ncn1 (stereo not drawn) | 28.6 |
| Cc1ccc(C(=O)NCCS(C)(=O)=O)c(=O)[nH]1 | -5.11 |
| Cc1ccc([C@]2(O)CC[C@H]3CN(Cc4cccnc4)C[C@H]32)nc1 | 9.25 |
| CO[C@H]1CO[C@@]2(CCCN(C(=O)C3CC=CC3)C2)C1 | -0.276 |
| CNc1ncccc1C(=O)N1CCCC2(CCN(C)CC2)CC1 | -1.7 |
| Cc1ccccc1C(=O)N1CCCn2cnc(CN3CCCC3=O)c2C1 | -4.3 |
| Cc1cc2nc(CO[C@H]3CN(CC4CC4)C[C@H]3F)[nH]c2cc1C | -2.67 |
| CC(C)CNC(=O)CN(C)S(C)(=O)=O | 0.607 |

| Compound | cytotoxicity at 70.5 h [%] |
| --- | --- |
| COC(=O)[C@H]1CN(C(=O)c2cscn2)C[C@@H]1c1ccc(F)cc1 | 0.296 |
| COCCN1C[C@@H]2CN(C(=O)[C@H]3CCCO3)C[C@@H]2C1=O | -15.9 |
| Cc1nc(CN2CCCC(NCCOc3ccccc3C#N)C2)no1 (stereo not drawn) | -2.51 |
| COc1ccc(F)cc1C(=O)N1CCCC(CNS(C)(=O)=O)C1 (stereo not drawn) | 1.51 |
| Cc1nn(C(=O)c2cccnc2)c(C)c1C | 27.4 |
| Cc1ccc(C(=O)N(C)CCNS(C)(=O)=O)cc1Br | -5.18 |
| CC(c1nc(C2CC2)no1)N1CCC(NS(=O)(=O)c2cccs2)CC1 (stereo not drawn) | -13.4 |
| Cc1ccc(CN2CCCC23Cc2ccccc2CNC3=O)cc1 (stereo not drawn) | 21.9 |
| CCN1C(=O)CCCC12CCCN(C(=O)c1sccc1C)C2 (stereo not drawn) | -9.33 |
| O=C(Cn1ccc2cc(Br)ccc21)NC[C@@H]1CCCN2CCCC[C@H]12 | 9.59 |
| Cc1cc2nc(C(C)C)cc(N3CCC(Oc4ncccn4)CC3)n2n1 | 48.7 |
| CC(C)=CCCC1(C)CCC(=O)N(CCc2csc(N)n2)C1 (stereo not drawn) | -5.28 |
| CN(C)CCN1C(=O)CO[C@@H]2CN(c3ncc(F)cn3)C[C@H]21 | -6.29 |
| COc1cccc(-c2nc(C)c(C(=O)N[C@H](CO)CCSC)s2)c1 | -5.73 |
| CCc1nc2n(n1)CC(NCCC(=O)Nc1cc(C)on1)CC2 (stereo not drawn) | -6.35 |
| CCC(=O)NCC(=O)NCc1cc(Br)ccc1OC(F)F | -5.29 |
| COc1c(NS(=O)(=O)c2ccc(C)c(C)c2)c(C)nn1C | 2.79 |
| Cc1ccsc1C(=O)N1CCCc2c(c(=O)n(C)n2C)C1 | -11 |
| CC(C)(C)C(=O)CN1Cc2ccccc2NCCC1=O | 0.78 |
| CCOCCN1CCN(CC(=O)N2CCCC2)CC1CC (stereo not drawn) | -4.43 |
| O=C(NCc1ccco1)[C@@H]1CCO[C@@H]2CCN(CC3CC3)C[C@@H]21 | -6.8 |
| CCCNC(=O)c1ccc(S(=O)(=O)NCC2(COC)CCCC2)cc1 | -4.17 |
| COc1ccc(Cn2cc(C(=O)N(C)Cc3ccn[nH]3)nn2)cc1 | -18.5 |

| Compound | cytotoxicity at 70.5 h [%] |
| --- | --- |
| COCCn1cnnc1C(C)NC(=O)c1[nH]c2c(C)cc(C)cc2c1C (stereo not drawn) | 14 |
| CC(C)NC(=O)c1nc(Cn2c(C(F)F)nc3ccccc32)no1 | -15.2 |
| O=C(O)c1cc(C2CC2)nc2c(Cl)cnn12 | -7.04 |
| CC(C)c1nsc(NC2CCOC3(CCCC3)C2)n1 (stereo not drawn) | -0.215 |
| CCNC(=O)[C@@H]1CCCN1C1(C(=O)NC)CCCCC1 | 4.64 |
| CCCc1ncc(CN(CCOC)Cc2cccs2)cn1 | -1.12 |
| COc1ccc2oc(C(C)NC(=O)NC3CCN(C)CC3)c(C)c2c1 (stereo not drawn) | -13.4 |
| Cc1sc2nc(CCN)nc(N3CCS(=O)(=O)CC3)c2c1C | -0.146 |
| O=C(c1cscn1)N1CC[C@@H]2[C@@H]1CCN2CC1CCOCC1 | -1.87 |
| CN(C)C1CCC2(CCN(Cc3cccnc3)CC2)c2ccccc21 (stereo not drawn) | -3.39 |
| CC(C)Cc1nc(CN2CCc3onc(-c4cccc(F)c4)c3C2)no1 | -2.69 |
| CN(C)S(=O)(=O)N1CCCC(c2cccc(Cc3ccccc3)n2)C1 (stereo not drawn) | 19 |
| Cc1nccn1CC1CCCN(Cc2ccc(-c3cccnc3)cc2)C1 (stereo not drawn) | -9.2 |
| COCCN(Cc1ccccc1)Cc1csc(-c2ncccn2)n1 | -4.86 |
| CSc1ncc(CN2CC(Oc3c(C)cccc3C)C2)cn1 | -2.81 |
| Cc1ccc(C(=O)N2CCn3cc(CN(C)Cc4ccco4)nc3C2)o1 | 8.16 |
| CC(=O)NC[C@H]1C[C@@H]2CCN1C[C@@H]2c1cc(-c2cccs2)nn1C | -10.2 |
| CC(C)COc1ccccc1CN(C)C(=O)c1cc(=O)[nH]c(=O)[nH]1 | -8.79 |
| COC(C)C(=O)NS(=O)(=O)c1cccc2cc(C)cnc12 (stereo not drawn) | -2.88 |
| CCC(Nc1ccc(Oc2ccc(C#N)cc2OC)cc1)C(N)=O (stereo not drawn) | 5.26 |
| CCN1C(=O)C(C#N)=C(C)/C(=C/C2=Cc3ccccc3OC2)C1=O | 7.28 |
